Laboratory results reported in publication PMC9823097, “Dysregulation of PRMT5 in chronic lymphocytic leukemia promotes progression with high risk of Richter’s transformation” (Nature Communications, 2023).

Columns and labels:
[1] = Pharmacokinetic study, oral gavage to CD-1 mice, blood analyzed by LC-MS/MS; type: in vivo; settings: for peak plasma level: WT CD-1 mice; for DNAUC / blood concentration at time point 0.25 / blood concentration at time point 0.5 / blood concentration at time point 1 h / blood concentration at time point 2 h / blood concentration at time point 4 h / blood concentration at time point 8 h / blood concentration at time point 12 h / blood concentration at time point 24 h / AUC / AUC(0-t) / Cmax / MRT / Tmax / half-life: 1d-single dose, male CD-1 mice, fed, blood analysis; for DNAUC / AUC / AUC(0-t) / Cmax / MRT / Tmax / half-life: 0.5%CMC+0.5%Tween80; for AUC / AUC(0-t) / Cmax / MRT / Tmax / half-life: mouse, whole blood, po
Procedure: For in vitro assays, the compound was stored in a 10 mM solution in DMSO. […] […] Blood was collected at various time points after dosing into EDTA-K2 tubes, placed on ice, and stored at −80 °C prior to analysis by LC-MS/MS. For biochemical potency and selectivity, PRT382 was solubilized in 100% DMSO and diluted serially threefold. For assessment of selectivity, enzyme activity against a panel of 37 methyltransferases was evaluated using 3H-SAM as a radioligand probe with filtration binding. PRT382 was tested in duplicate at a final concentration of 10 µM. The percent of enzyme activity relative to DMSO control condition was determined for each enzyme.

[2] = Pharmacokinetics in dogs (clearance, oral bioavailability); type: in vivo
[3] = system: CCMCL-1; assay: Anti-proliferative activity, MTS assay, CCMCL-1; type: cell-based; settings: MCL, read-out: PRT382 IC50 (anti-proliferative)
Procedure: (§1) Cell proliferation was assessed via MTS (3-[4,5-dimethylthiazol-2-yl]-5-[3-carboxymethoxyphenyl]-2-[4-sulfophenyl]-2H-tetrazolium) assay (Sigma), using the tetrazolium dye […]. Cell apoptosis was evaluated by Annexin V-FITC or PE and propidium iodide (PI) staining using FC500 cytometer (Beckman-Coulter, Indianapolis, IN) following the manufacturer’s procedure (BD Pharmingen, Billerica, MA)[55]. For cell cycle analysis, cells were fixed with cold ethanol overnight and then stained before analysis with 30 μg/mL propidium iodide (Invitrogen) and 200 μg/mL RNase (Sigma-Aldrich) in 0.1 % v/v Triton X-100 (Sigma-Aldrich). Cell cycle data analysis was performed using ModFit LT software (Verity Software House, Topsham, ME).

[4] = system: U-2932; assay: Anti-proliferative activity, MTS assay, U-2932; type: cell-based; settings: Homo sapiens, U2932, DLBCL, read-out: PRT382 IC50 (anti-proliferative)
Procedure: as §1

[5] = system: Granta-519 lymphoma cell line; assay: Reducing sDMA assay (western blot of cellular sDMA) in Granta-519; type: cell-based; settings: for sDMA signal normalized to β-Actin and DMSO control: DMSO = 100
Procedure: For western blot analysis of Cellular sDMA in Granta-519, one day before the experiment, Granta-519 cells were passaged to a density of 0.5 × 10^6 cells/ml. The next day, Granta-519 cells were spun down at 1500 rpm for 4 min, resuspended in fresh medium at 0.5E6 cells/ml and 3 mL of culture (1.5E6 cells) were seeded into a six-well plate. Eight-point, threefold serial dilutions of compound working stocks were added to cells (3 µl, 1:1000 dilution, DMSO concentration was 0.1%; final top concentration at 1 µM) and incubated for 3 days. Cells incubated with DMSO was used as vehicle control. Cells were harvested 3 days later, resuspended in 15 µL PBS, lysed in 4% SDS, and homogenized by passing through homogenizer column (Omega Biotek, Catalog #: HCR003). Total protein concentrations were determined by BCA assay (ThermoFisher Scientific, Catalog #: 23225). Lysates were mixed with 5× Laemmli buffer and boiled for 5 min. Forty micrograms of total protein was separated on SDS-PAGE gels (Bio-Rad, catalog #: 4568083, 4568043), transferred to PVDF membrane, and blocked with 5% dry milk (Bio-Rad, Catalog #: 1706404) in TBS with 0.1% v/v Tween20 (TBST) for 1 h at room temperature (RT), and incubated with primary antibodies (sDMA: Cell signaling, Catalog #: 13222, 1:3,000; β-actin: sigma, Catalog #: A2228, 1:5000) in 5% dry milk in TBST at 4 °C overnight. The next day, membranes were washed with TBST, 5 × 5 min, and incubated with HRP conjugated seconded antibody (GE Healthcare; Catalog #: NA9341 ML, NA931-1ML; 1:5000) for 2 hours at RT, followed by 5 × 5 min washes with TBST, and incubation with ECL substrates (Bio-Rad, Catalog #: 1705061, 1705062). The chemiluminescent signal was captured with Fluochem HD2 imager (Proteinsimple). SmD3me2s bands were quantified by ImageJ. Signals were normalized to β-Actin and DMSO control. IC50 values were calculated using Graphpad Prism (v9.2.0) ([Inhibitor] vs. normalized response – Variable slope).

Which peak plasma level ([1]; 10 mg/kg oral) does the source give for CON=c1nc[nH]c2c1ccn2[C@@H]1O[C@H]([C@H](O)c2ccc(Cl)c(Cl)c2)[C@@H](O)[C@H]1O.Cl [PRT382, (2 R,3 S,4 R,5 R)-2-[(R)-(3,4-dichlorophenyl)-hydroxy-methyl]-5-[(4Z)-4-methoxyimino-1H-pyrrolo[2,3-d]pyrimidin-7-yl]tetrahydrofuran-3,4-diol hydrochloride] here?
The peak plasma level was 12 µM.

What about the DNAUC ([1]; 10 mg/kg) of the same compound?
The DNAUC was 1180 kg·ng·h/mL/mg.

What about the “blood concentration at time point 0.25” value ([1]; 10 mg/kg) of the same compound?
The value was 2530.

And the “blood concentration at time point 0.5” value ([1]; 10 mg/kg)?
The value was 3240.

And the “blood concentration at time point 1 h” value ([1]; 10 mg/kg)?
The value was 2973.

What about the “blood concentration at time point 2 h” value ([1]; 10 mg/kg) of the same compound?
The value was 1733.

What about the “blood concentration at time point 4 h” value ([1]; 10 mg/kg) of the same compound?
Its value is 908.

And the “blood concentration at time point 8 h” value ([1]; 10 mg/kg)?
The value was 530.

And the “blood concentration at time point 12 h” value ([1]; 10 mg/kg)?
The value was 46.

What about the blood concentration at time point 24 h ([1]; 10 mg/kg) of the same compound?
The blood concentration at time point 24 h was 0 ng/mL.

What about the peak plasma level ([1]; 30 mg/kg oral) of the same compound?
The peak plasma level was 32 µM.

What about the DNAUC ([1]; 30 mg/kg) of the same compound?
Its DNAUC is 763 kg·ng·h/mL/mg.

And the “blood concentration at time point 0.25” value ([1]; 30 mg/kg)?
Its value is 3753.

And the “blood concentration at time point 0.5” value ([1]; 30 mg/kg)?
Its value is 4560.

What about the “blood concentration at time point 1 h” value ([1]; 30 mg/kg) of the same compound?
The value was 4613.

And the “blood concentration at time point 2 h” value ([1]; 30 mg/kg)?
Its value is 2990.

And the “blood concentration at time point 4 h” value ([1]; 30 mg/kg)?
The value was 2027.

And the “blood concentration at time point 8 h” value ([1]; 30 mg/kg)?
The value was 1350.

What about the “blood concentration at time point 12 h” value ([1]; 30 mg/kg) of the same compound?
Its value is 138.

What about the blood concentration at time point 24 h ([1]; 30 mg/kg) of the same compound?
The blood concentration at time point 24 h was 0 ng/mL.

And the peak plasma level ([1]; 100 mg/kg oral)?
Its peak plasma level is 75 µM.

What about the DNAUC ([1]; 100 mg/kg) of the same compound?
The DNAUC was 1700 kg·ng·h/mL/mg.

And the “blood concentration at time point 0.25” value ([1]; 100 mg/kg)?
The value was 20267.

What about the “blood concentration at time point 0.5” value ([1]; 100 mg/kg) of the same compound?
Its value is 25300.

And the “blood concentration at time point 1 h” value ([1]; 100 mg/kg)?
Its value is 25500.

And the “blood concentration at time point 2 h” value ([1]; 100 mg/kg)?
The value was 21367.

And the “blood concentration at time point 4 h” value ([1]; 100 mg/kg)?
Its value is 16300.

What about the “blood concentration at time point 8 h” value ([1]; 100 mg/kg) of the same compound?
Its value is 10253.

What about the “blood concentration at time point 12 h” value ([1]; 100 mg/kg) of the same compound?
The value was 1753.

What about the blood concentration at time point 24 h ([1]; 100 mg/kg) of the same compound?
Its blood concentration at time point 24 h is 7 ng/mL.

What about the AUC ([1]; 10 mg/kg) of the same compound?
The AUC was 11700 ng·h/mL.

And the AUC(0-t) ([1]; 10 mg/kg)?
Its AUC(0-t) is 11600 ng·h/mL.

What about the Cmax ([1]; 10 mg/kg) of the same compound?
The Cmax was 3240 ng/mL.

And the MRT ([1]; 10 mg/kg)?
Its MRT is 3.34 h.

And the Tmax ([1]; 10 mg/kg)?
Its Tmax is 0.5 h.

And the half-life ([1]; 10 mg/kg)?
The half-life was 1.87 h.

And the AUC ([1]; 30 mg/kg)?
The AUC was 22900 ng·h/mL.

And the AUC(0-t) ([1]; 30 mg/kg)?
Its AUC(0-t) is 22300 ng·h/mL.

What about the Cmax ([1]; 30 mg/kg) of the same compound?
The Cmax was 4670 ng/mL.

And the MRT ([1]; 30 mg/kg)?
The MRT was 4 h.

What about the Tmax ([1]; 30 mg/kg) of the same compound?
Its Tmax is 0.83 h.

What about the half-life ([1]; 30 mg/kg) of the same compound?
The half-life was 2.25 h.

And the AUC ([1]; 100 mg/kg)?
The AUC was 170000 ng·h/mL.

What about the AUC(0-t) ([1]; 100 mg/kg) of the same compound?
Its AUC(0-t) is 170000 ng·h/mL.

What about the Cmax ([1]; 100 mg/kg) of the same compound?
Its Cmax is 25800 ng/mL.

And the MRT ([1]; 100 mg/kg)?
Its MRT is 4.6 h.

And the Tmax ([1]; 100 mg/kg)?
Its Tmax is 0.67 h.

And the half-life ([1]; 100 mg/kg)?
Its half-life is 1.53 h.

And the clearance [2]?
The clearance was “low”.

What about the bioavailability ([2]; dog, in vivo, po, read-out: oral bioavailability (F%)) of the same compound?
The bioavailability was 70 to 80%.

What about the IC50 [3] of the same compound?
Its IC50 is 14 nM.

What about the IC50 [4] of the same compound?
Its IC50 is 12 nM.

What about the “sDMA signal normalized to β-Actin and DMSO control” value (“sDMA signal normalized” below) ([5]; Conc. 0.000457247 µM) of the same compound?
The value was 88.6989.

What about the “sDMA signal normalized” value ([5]; Conc. 0.00137174 µM) of the same compound?
The value was 97.8569.

What about the “sDMA signal normalized” value ([5]; Conc. 0.00411523 µM) of the same compound?
The value was 93.6002.

And the “sDMA signal normalized” value ([5]; Conc. 0.0123457 µM)?
Its value is 75.2291.

What about the “sDMA signal normalized” value ([5]; Conc. 0.037037 µM) of the same compound?
The value was 39.1378.

And the “sDMA signal normalized” value ([5]; Conc. 0.111111 µM)?
Its value is 15.0036.

And the “sDMA signal normalized” value ([5]; Conc. 0.333333 µM)?
The value was 6.086.

What about the “sDMA signal normalized” value ([5]; Conc. 1 µM) of the same compound?
Its value is 6.863.

What about the IC50 ([5]; Homo sapiens, 72 h, Granta-519, 3 days) of the same compound?
The IC50 was 27 nM.
